# In US4374980A, “3'-Deamino-3'-morpholino carminomycin” (Zaidan Hojin Biseibutsu Kagaku Kenkyu Kai, priority 1981, dated 1983):
# How the values were obtained:
# [1] = test system: Pseudomonas aeruginosa A3; experiment: Minimum inhibitory concentration by broth dilution method; format: cell-based
# From the text: (§1) To illustrate such activity, minimum inhibitory concentrations (as determined by the broth dilution method) of the compound against several bacteria are shown in the Table below.
# [2] = test system: Corynebacterium bovis 1810; experiment: as above; format: cell-based
# From the text: as §1
# Staph. aureus Smith = experiment: as above; format: cell-based; conditions: Staphylococcus aureus
# From the text: as §1
# [3] = test system: Micrococcus flavus FDA 16; experiment: as above; format: cell-based; conditions: FDA16
# From the text: as §1
# Sarcina lutea PCI 1001 = experiment: as above; format: cell-based; conditions: Micrococcus luteus, PCI1001
# From the text: as §1
# Staph. aureus FDA 209P = experiment: as above; format: cell-based; conditions: Staphylococcus aureus, FDA209P
# From the text: as §1
# [4] = test system: Bacillus cereus ATCC 10702; experiment: as above; format: cell-based; conditions: ATCC10702
# From the text: as §1
# [5] = test system: Bacillus subtilis NRRL B-558; experiment: as above; format: cell-based; conditions: NRRLB558
# From the text: as §1
# leukemic cells L1210 [6] = experiment: Inhibition of growth of cultivated leukemic cells L1210 of mice; format: cell-based; conditions: for IC50: Mus musculus, growth, RPMI 1640, 20% calf serum, 37° C.
# Description: (§2) (A) Activity of inhibiting growth, DNA synthesis and RNA synthesis of cultivated leukemic cells L1210 of mice.
# For example, L1210 cells were inoculated in a concentration of 5×10^4 /ml in an RPMI 1640 culture medium containing 20% calf serum (Rosewell Memorial Park Institute 1640), and simultaneously 3'-deamino-3'-morpholino-carminomycin was added in various concentrations. Thus, the cells were cultivated in an incubator containing carbon dioxide gas at 37° C. The 50% growth inhibitory concentration with respect to a control group was determined.
# [7] = Acute toxicity by oral administration on CDF1 mouse; conditions: in vivo
# From the text: (C) Acute toxicity by oral administration on CDF1 mouse.
# leukemic cells L1210 [8] = experiment: Antitumor activity on CDF1 mouse leukemia induced by leukemic cells L1210; format: in vivo, CDF1 mice; conditions: 10 consecutive days
# Description: (B) Antitumor activitiy on CDF1 mouse leukemia induced by leukemic cells L1210 of mice.
# Leukemic cells L1210 of mice were intraperitoneally transplanted in an amount of 1×10^5 per mouse in CDF1 mice. Starting 24 hours after the transplantation, 3'-deamino-3'-morpholino-carminomycin was intraperitoneally or orally administered to the mice for 10 consecutive days. The survival rate (T/C, %) was calculated in comparison with a control group (to which physiological saline was administered).
# leukemic cells L1210 [9] = experiment: Inhibition of DNA synthesis (14C-thymidine incorporation) in cultivated leukemic cells L1210 of mice; format: cell-based; conditions: Mus musculus, L1210, 1 h, 60 minutes, 37° C., RPMI 1640, 10% calf serum
# Description: as §2
# (§3) Separately, the above cultivated cells L1210 were suspended in a concentration of 1×10^5 /ml in an RPMI 1640 medium containing 10% of calf serum, and cultivated for 1 to 2 hours in an incubator containing carbon dioxide gas at 37° C. Then, 3'-deamino-3'-morpholino-carminomycin was added in various concentrations,and 15 minutes later, ^14 C-uridine (0.05 μCi/ml) and ^14 C-thymidine (0.05 μCi/ml) were added. Thus, the cells were cultivated at 37° C. for 60 minutes. A 10% aqueous solution of trichloroacetic acid was added to the reaction liquor to stop the reaction and simultaneously precipitate an acid-insoluble matter. The acid-insoluble matter was washed three times with a 10-5% aqueous solution of trichloroacetic acid, and then dissolved in formic acid. The radioactivity of the acid-insoluble matter was measured. From the ratio of incorporated radiation to that of a control group, the concentrations which inhibited radiation by 50% were measured.
# leukemic cells L1210 [10] = experiment: Inhibition of RNA synthesis (14C-uridine incorporation) in cultivated leukemic cells L1210 of mice; format: cell-based; conditions: Mus musculus, L1210, 1 h, 60 minutes, 37° C., RPMI 1640, 10% calf serum
# Description: as §2, §3
# P-388 leukemia = conditions: vs P-388 leukemia in mice; reported in U.S. Pat. No. 4,301,277; cited from earlier work
smiles,measurement,setting,value
CC(=O)[C@]1(O)Cc2c(O)c3c(c(O)c2[C@@H](O[C@H]2C[C@H](N4CCOCC4)[C@H](O)[C@H](C)O2)C1)C(=O)c1c(O)cccc1C3=O [3'-Deamino-3'-morpholino-carminomycin],MIC,[1],> 100 µg/mL
same,MIC,[2],0.39 µg/mL
same,MIC,Staph. aureus Smith,6.25 µg/mL
same,MIC,[3],1.56 µg/mL
same,MIC,Sarcina lutea PCI 1001,0.78 µg/mL
same,MIC,Staph. aureus FDA 209P,0.78 µg/mL
same,MIC,[4],0.78 µg/mL
same,MIC,[5],1.56 µg/mL
same,IC50,"leukemic cells L1210 [6]; L1210, 24 h, 1 day, read-out: IC50 growth, 1 day after",0.01 µg/mL
same,IC50,"leukemic cells L1210 [6]; L1210, 48 h, 2 days, read-out: IC50 growth, 2 days after",0.0009 µg/mL
same,inhibition of growth and nucleic acid synthesis (in words),leukemic cells L1210 [6]; cultivated L1210 cells of mice,markedly inhibit the growth and nucleic acid synthesis
same,LD50,[7],1.56 mg/kg
same,T/C % of the survival period,"leukemic cells L1210 [8]; i.p., 0.39 μg/mouse/day",94%
same,T/C % of the survival period,"leukemic cells L1210 [8]; i.p., 0.78 μg/mouse/day",122%
same,T/C % of the survival period,"leukemic cells L1210 [8]; i.p., 1.56 μg/mouse/day",94%
same,T/C % of the survival period,"leukemic cells L1210 [8]; i.p., 3.125 μg/mouse/day",122%
same,T/C % of the survival period,"leukemic cells L1210 [8]; i.p., 6.25 μg/mouse/day",122%
same,T/C % of the survival period,"leukemic cells L1210 [8]; i.p., 12.5 μg/mouse/day",194%
same,toxicity (footnote *),"leukemic cells L1210 [8]; i.p., 12.5 μg/mouse/day",Toxic
same,T/C % of the survival period,"leukemic cells L1210 [8]; p.o., 0.39 μg/mouse/day",100%
same,T/C % of the survival period,"leukemic cells L1210 [8]; p.o., 0.78 μg/mouse/day",111%
same,T/C % of the survival period,"leukemic cells L1210 [8]; p.o., 1.56 μg/mouse/day",106%
same,T/C % of the survival period,"leukemic cells L1210 [8]; p.o., 3.125 μg/mouse/day",133%
same,T/C % of the survival period,"leukemic cells L1210 [8]; p.o., 6.25 μg/mouse/day",167%
same,T/C % of the survival period,"leukemic cells L1210 [8]; p.o., 12.5 μg/mouse/day",206%
same,IC50,leukemic cells L1210 [9],0.09 µg/mL
same,IC50,leukemic cells L1210 [10],0.013 µg/mL
"COc1cccc2c1C(=O)c1c(O)c3c(c(O)c1C2=O)C[C@@](O)(C(=O)CO)C[C@@H]3O[C@H]1C[C@H](N2CCOCC2)[C@H](O)[C@H](C)O1 [3'-deamino-3'-morpholino-adriamycin, 3'-Deamino-3'-morpholino-adriamycin]",antitumor potency relative to adriamycin and daunomycin starting materials,P-388 leukemia,significantly greater antitumor potency
"COc1cccc2c1C(=O)c1c(O)c3c(c(O)c1C2=O)C[C@@](O)(C(C)=O)C[C@@H]3O[C@H]1C[C@H](N2CCOCC2)[C@H](O)[C@H](C)O1 [3'-deamino-3'-morpholino-daunomycin, 3'-Deamino-3'-morpholinodaunomycin]",antitumor potency relative to adriamycin and daunomycin starting materials,P-388 leukemia,significantly greater antitumor potency
